Laboratory results from patent US12503438B2, “Compounds for the treatment of kinase-dependent disorders” (Exelixis, Inc., priority 2019, dated 2025).

Tests used:
Format in all cases: cell-based
[1] = biological target: Met (Homo sapiens, UniProt P08581); assay: Met autophosphorylation ELISA in PC-3 cells; parameters: endogenous in cells; host or cells: PC-3 prostate cancer cells (ATCC #CRL-1435); details: cellular activity, HGF-stimulated, phospho-Met ELISA, read-out: c-Met IC50
Method: PC-3 prostate cancer cells (ATCC #CRL-1435) were seeded at 4×10^4 cells/well onto 24-well plates (Greiner #662165), in DMEM (Thermo Fisher #11995-040) containing 10% FBS (Thermo Fisher #26140-079), 1% MEM NEAA (Thermo Fisher #11140-050), 1% GlutaMax (Thermo Fisher #35050-061), and 1% Penicillin Streptomycin (Thermo Fisher #15140-122). PC-3 cells were incubated at 37° C., 5% CO2 for 24 h and then starved for 3 h in serum-free medium. Test compounds were serially diluted to produce an 8-point dose curve in fresh serum-free medium to a final concentration of 0.3% DMSO (vehicle) and added to the cells and incubated for 1 h. Cells were then stimulated with 100 ng/mL recombinant human HGF (R&D Systems #294-HG-250) for 10 min, washed with cold PBS and immediately lysed with 130 μL of cold 1× lysis buffer [20 mM Tris, 137 mM sodium chloride, 2 mM EDTA, 10% glycerol, 1% NP-40 alternative, 1 mM activated sodium orthovanadate, 1 mM PefaBloc SC (Sigma-Aldrich #11429868001), protease/phosphatase inhibitor tablet (Thermo Fisher #A32959)]. Lysates were clarified by centrifugation and 100 μL/well added into the PathScan phospho-Met (panTyr) Sandwich ELISA (Cell Signaling Technology #7333). Assay was performed according to manufacturer's instructions. Positive control wells (100% activity) contained HGF-stimulated, DMSO-treated cell lysates. Negative control wells (0% activity) contained HGF-stimulated, reference inhibitor-treated cell lysates. IC50 values were calculated by nonlinear regression analysis using a 4-parameter logistic curve fit in ActivityBase XE (IDBS).

[2] = biological target: T1, AXL (Homo sapiens, UniProt P30530); assay: AXL autophosphorylation ELISA in A-172 cells; details: cellular activity, Gas6-stimulated, phospho-AXL ELISA
T1 construct: endogenous in cells; host or cells: A-172 glioblastoma cells (ATCC #CRL-1620)
T1 sequence (P30530 26-894): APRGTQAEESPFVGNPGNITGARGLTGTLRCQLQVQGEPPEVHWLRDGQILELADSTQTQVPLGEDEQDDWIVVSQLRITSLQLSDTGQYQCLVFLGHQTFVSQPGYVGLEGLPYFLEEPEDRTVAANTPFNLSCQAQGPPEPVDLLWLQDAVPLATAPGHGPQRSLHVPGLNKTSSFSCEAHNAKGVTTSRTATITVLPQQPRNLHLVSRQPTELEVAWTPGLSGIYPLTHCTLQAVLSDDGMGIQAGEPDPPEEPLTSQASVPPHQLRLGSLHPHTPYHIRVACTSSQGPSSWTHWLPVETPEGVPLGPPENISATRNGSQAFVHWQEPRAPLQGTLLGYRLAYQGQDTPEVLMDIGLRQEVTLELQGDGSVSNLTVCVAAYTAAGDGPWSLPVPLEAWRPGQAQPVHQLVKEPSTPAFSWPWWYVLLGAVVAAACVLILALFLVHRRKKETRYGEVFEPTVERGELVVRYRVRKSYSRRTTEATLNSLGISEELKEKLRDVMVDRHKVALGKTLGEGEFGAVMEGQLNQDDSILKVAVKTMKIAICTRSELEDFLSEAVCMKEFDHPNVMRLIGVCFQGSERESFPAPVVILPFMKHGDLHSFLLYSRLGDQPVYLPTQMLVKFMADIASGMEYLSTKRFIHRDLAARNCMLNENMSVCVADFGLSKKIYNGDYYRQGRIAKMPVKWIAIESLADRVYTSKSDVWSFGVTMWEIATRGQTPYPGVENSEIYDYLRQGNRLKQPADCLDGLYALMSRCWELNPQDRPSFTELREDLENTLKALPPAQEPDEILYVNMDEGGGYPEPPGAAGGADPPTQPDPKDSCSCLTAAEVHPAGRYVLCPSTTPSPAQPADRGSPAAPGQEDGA
Method: A-172 glioblastoma cells (ATCC #CRL-1620) were seeded at 2.5×10^5 cells/well onto 24-well plates (Greiner #662165), in DMEM (Thermo Fisher #11995-040) containing 10% FBS (Thermo Fisher #26140-079), 1% MEM NEAA (Thermo Fisher #11140-050), 1% GlutaMax (Thermo Fisher #35050-061) and 1% Penicillin Streptomycin (Thermo Fisher #15140-122). A-172 cells were incubated at 37° C., 5% CO2 for 24 h and then starved for 24 h in serum-free medium. Test compounds were serially diluted to produce an 8-point dose curve in fresh serum-free medium to a final concentration of 0.3% DMSO (vehicle) and added to the cells and incubated for 1 h. Cells were then stimulated with 1 μg/mL recombinant human Gas6 (R&D Systems #885-GSB-500) for 15 min, washed with cold PBS and immediately lysed with 150 μL of cold 1× lysis buffer [20 mM Tris, 137 mM sodium chloride, 2 mM EDTA, 10% glycerol, 1% NP-40 alternative, 1 mM activated sodium orthovanadate, 1 mM PefaBloc SC (Sigma-Aldrich #11429868001), protease/phosphatase inhibitor tablet (Thermo Fisher #A32959)]. Lysates were collected and 100 μL/well added into the human phospho-AXL DuoSet IC ELISA (R&D Systems #DYC2228-2). Assay was performed according to manufacturer's instructions and sample phospho-AXL concentrations were extrapolated using human phospho-AXL control (R&D Systems #841645) as a standard. Positive control wells (100% activity) contained Gas6-stimulated, DMSO-treated cell lysates. Negative control wells (0% activity) contained Gas6-stimulated, reference inhibitor-treated cell lysates. IC50 values were calculated by nonlinear regression analysis using a 4-parameter logistic curve fit in ActivityBase XE (IDBS).

[3] = biological target: KDR (Homo sapiens, UniProt P35968); assay: KDR autophosphorylation ELISA in HUVEC cells; parameters: endogenous in cells; host or cells: HUVEC (Lonza #C2519A); details: cellular activity, VEGF165-stimulated, phospho-KDR ELISA
Method: Human umbilical vein endothelial cells or HUVEC (Lonza #C2519A) were seeded at 2×10^4 cells/well onto 96-well plates (Corning #3904), in EGM-2 growth medium (Lonza #CC-3162) containing 1% Penicillin Streptomycin (Thermo Fisher #15140-122). HUVEC cells were incubated at 37° C., 5% CO2 for 24 h and then starved for 24 h in serum-free EBM-2 basal medium (Lonza #CC-3156) containing 1% Penicillin Streptomycin. Test compounds were serially diluted to produce an 8-point dose curve in fresh serum-free medium to a final concentration of 0.3% DMSO (vehicle) and added to the cells and incubated for 1 h. Cells were then stimulated with 100 ng/mL recombinant human VEGF165 (R&D Systems #293-VE-500) for 5 min, washed with cold PBS, and immediately lysed with 130 μL of cold 1× lysis buffer [20 mM Tris, 137 mM sodium chloride, 2 mM EDTA, 10% glycerol, 1% NP-40 alternative, 1 mM activated sodium orthovanadate, 1 mM PefaBloc SC (Sigma-Aldrich #11429868001), protease/phosphatase inhibitor tablet (Thermo Fisher #A32959)]. Lysates were collected and 100 μL/well added into the human phospho-KDR DuoSet IC ELISA (R&D Systems #DYC1766-2). Assay was performed according to manufacturer's instructions and sample phospho-KDR concentrations were extrapolated using human phospho-KDR control (R&D Systems #841421) as a standard. Positive control wells (100% activity) contained VEGF165-stimulated, DMSO-treated cell lysates. Negative control wells (0% activity) contained non-stimulated cell lysates. IC50 values were calculated by nonlinear regression analysis using a 4-parameter logistic curve fit in ActivityBase XE (IDBS).

KDR, sequence (P35968 20-1356): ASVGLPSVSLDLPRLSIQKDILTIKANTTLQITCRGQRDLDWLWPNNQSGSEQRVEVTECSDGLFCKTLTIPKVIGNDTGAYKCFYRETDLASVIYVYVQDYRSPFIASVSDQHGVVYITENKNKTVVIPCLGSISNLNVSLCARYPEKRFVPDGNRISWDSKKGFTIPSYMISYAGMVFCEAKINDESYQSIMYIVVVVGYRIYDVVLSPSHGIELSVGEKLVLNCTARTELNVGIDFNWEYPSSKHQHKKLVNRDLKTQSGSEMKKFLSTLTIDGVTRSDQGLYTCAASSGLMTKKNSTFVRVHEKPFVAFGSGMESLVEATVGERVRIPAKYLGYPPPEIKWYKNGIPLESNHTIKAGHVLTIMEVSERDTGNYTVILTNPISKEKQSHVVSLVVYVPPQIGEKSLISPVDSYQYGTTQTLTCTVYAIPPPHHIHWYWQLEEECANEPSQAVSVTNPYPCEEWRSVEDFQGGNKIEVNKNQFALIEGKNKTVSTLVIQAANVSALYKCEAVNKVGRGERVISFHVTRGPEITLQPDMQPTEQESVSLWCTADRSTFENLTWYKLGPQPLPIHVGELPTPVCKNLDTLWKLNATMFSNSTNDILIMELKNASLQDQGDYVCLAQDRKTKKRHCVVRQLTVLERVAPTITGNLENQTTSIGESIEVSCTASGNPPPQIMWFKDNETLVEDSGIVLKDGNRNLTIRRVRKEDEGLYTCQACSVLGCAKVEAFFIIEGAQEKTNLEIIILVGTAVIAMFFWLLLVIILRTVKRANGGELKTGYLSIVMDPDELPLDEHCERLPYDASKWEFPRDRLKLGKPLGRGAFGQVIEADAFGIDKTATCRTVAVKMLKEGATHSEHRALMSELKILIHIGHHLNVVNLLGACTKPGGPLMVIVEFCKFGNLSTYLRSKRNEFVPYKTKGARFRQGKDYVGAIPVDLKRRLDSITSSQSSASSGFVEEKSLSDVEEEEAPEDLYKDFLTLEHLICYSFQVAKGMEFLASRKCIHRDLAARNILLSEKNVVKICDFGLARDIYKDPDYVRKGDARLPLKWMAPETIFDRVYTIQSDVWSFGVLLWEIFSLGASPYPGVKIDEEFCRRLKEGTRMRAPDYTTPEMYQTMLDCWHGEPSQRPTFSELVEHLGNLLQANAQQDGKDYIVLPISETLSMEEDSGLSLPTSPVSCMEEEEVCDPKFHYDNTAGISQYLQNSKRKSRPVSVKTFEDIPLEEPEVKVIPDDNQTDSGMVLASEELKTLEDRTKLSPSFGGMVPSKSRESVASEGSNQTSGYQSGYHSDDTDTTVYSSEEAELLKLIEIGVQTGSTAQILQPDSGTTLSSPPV
Met, sequence (P08581 25-1390): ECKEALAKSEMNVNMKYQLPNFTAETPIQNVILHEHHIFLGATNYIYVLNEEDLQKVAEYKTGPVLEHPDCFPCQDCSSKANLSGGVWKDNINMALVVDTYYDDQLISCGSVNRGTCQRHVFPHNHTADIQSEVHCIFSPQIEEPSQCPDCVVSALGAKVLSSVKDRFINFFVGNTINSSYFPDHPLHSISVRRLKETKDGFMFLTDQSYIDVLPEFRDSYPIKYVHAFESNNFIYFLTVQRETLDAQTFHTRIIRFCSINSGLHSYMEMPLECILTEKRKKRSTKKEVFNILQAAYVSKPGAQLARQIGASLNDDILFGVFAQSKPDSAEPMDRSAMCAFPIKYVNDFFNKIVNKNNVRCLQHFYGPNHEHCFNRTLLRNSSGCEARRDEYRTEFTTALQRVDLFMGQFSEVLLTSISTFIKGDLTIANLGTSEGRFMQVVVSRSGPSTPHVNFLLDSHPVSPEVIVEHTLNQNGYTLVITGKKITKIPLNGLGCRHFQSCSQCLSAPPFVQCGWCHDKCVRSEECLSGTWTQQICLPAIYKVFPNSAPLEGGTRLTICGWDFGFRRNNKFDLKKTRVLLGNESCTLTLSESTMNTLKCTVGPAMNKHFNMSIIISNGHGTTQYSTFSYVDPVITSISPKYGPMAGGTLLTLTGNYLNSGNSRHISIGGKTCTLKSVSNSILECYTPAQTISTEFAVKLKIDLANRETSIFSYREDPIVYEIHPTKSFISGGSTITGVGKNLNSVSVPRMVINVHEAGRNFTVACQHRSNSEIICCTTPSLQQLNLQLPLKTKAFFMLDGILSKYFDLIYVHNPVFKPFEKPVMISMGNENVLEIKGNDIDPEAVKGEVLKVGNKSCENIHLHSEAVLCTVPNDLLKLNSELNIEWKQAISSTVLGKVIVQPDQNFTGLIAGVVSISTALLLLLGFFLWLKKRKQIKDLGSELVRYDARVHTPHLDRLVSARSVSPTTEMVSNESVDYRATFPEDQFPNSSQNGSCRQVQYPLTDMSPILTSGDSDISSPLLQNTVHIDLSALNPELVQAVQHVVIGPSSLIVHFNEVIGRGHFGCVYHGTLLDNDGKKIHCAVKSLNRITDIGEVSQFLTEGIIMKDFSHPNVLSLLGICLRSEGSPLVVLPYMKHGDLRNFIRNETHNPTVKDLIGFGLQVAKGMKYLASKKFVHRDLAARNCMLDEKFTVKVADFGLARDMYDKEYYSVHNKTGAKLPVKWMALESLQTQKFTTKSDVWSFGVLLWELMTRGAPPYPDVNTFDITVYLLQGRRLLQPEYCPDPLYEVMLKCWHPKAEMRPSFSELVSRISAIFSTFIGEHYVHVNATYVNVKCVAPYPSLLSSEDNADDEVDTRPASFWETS

Row | SMILES | IC50 [1] [µM] | IC50 [2] [µM] | IC50 [3] [µM]
1 | CN(C(=O)C1(C(=O)Nc2ccc(Oc3ccnc4cc(-c5cnn(C(F)F)c5)ccc34)cc2)CC1)c1ccc(F)cc1 [Compound 126, 1-N-[4-[7-[1-(Difluoromethyl)pyrazol-4-yl]quinolin-4-yl]oxyphenyl]-1-N′-(4-fluorophenyl)-1-N′-methylcyclopropane-1,1-dicarboxamide] | > 0.3 |  | 
2 | O=C(Nc1ccc(F)cc1)C1(C(=O)Nc2ccc(Oc3ccnc4cc(-c5cc(C(F)(F)F)[nH]n5)ccc34)cc2)CC1 [Compound 100, 1-N′-(4-Fluorophenyl)-1-N-[4-[7-[5-(trifluoromethyl)-1H-pyrazol-3-yl]quinolin-4-yl]oxyphenyl]cyclopropane-1,1-dicarboxamide] | 0.1 to 0.3 |  | 
3 | O=C(Nc1ccc(F)cc1)C1(C(=O)Nc2ccc(Oc3ccnc4cc(-c5ccc(C6CC6)nc5)ccc34)cc2)CC1 [Compound 43, 1-N-[4-[7-(6-Cyclopropylpyridin-3-yl)quinolin-4-yl]oxyphenyl]-1-N′-(4-fluorophenyl)cyclopropane-1,1-dicarboxamide] | 0.1 to 0.3 | 0.1 to 0.3 | 0.01 to 0.1
4 | Cc1cc(-c2ccc3c(Oc4ccc(NC(=O)C5(C(=O)Nc6ccc(F)cc6)CC5)cc4)ccnc3c2)cc(C)n1 [Compound 32, 1-N-[4-[7-(2,6-Dimethylpyridin-4-yl)quinolin-4-yl]oxyphenyl]-1-N′-(4-fluorophenyl)cyclopropane-1,1-dicarboxamide] | 0.01 to 0.1 |  | 
5 | O=C(Nc1ccc(F)cc1)C1(C(=O)Nc2ccc(Oc3ccnc4cc(-c5ccc(N6CCCC6)nc5)ccc34)cc2)CC1 [Compound 49, 1-N′-(4-Fluorophenyl)-1-N-[4-[7-(6-pyrrolidin-1-ylpyridin-3-yl)quinolin-4-yl]oxyphenyl]cyclopropane-1,1-dicarboxamide] | 0.1 to 0.3 | 0.1 to 0.3 | 
6 | O=C(Nc1ccc(F)cc1)C1(C(=O)Nc2ccc(Oc3ccnc4cc(C5CCOC5)ccc34)cc2)CC1 (single isomer, unassigned) [Compound 89, 1-N′-(4-Fluorophenyl)-1-N-[4-[7-[oxolan-3-yl]quinolin-4-yl]oxyphenyl]cyclopropane-1,1-dicarboxamide] | 0.01 to 0.1 | > 0.3 | > 0.3
7 | O=C(Nc1ccc(F)cc1)C1(C(=O)Nc2ccc(Oc3ccnc4cc(C5CCOC5)ccc34)cc2)CC1 (single isomer, unassigned) [Compound 88, 1-N′-(4-Fluorophenyl)-1-N-[4-[7-[oxolan-3-yl]quinolin-4-yl]oxyphenyl]cyclopropane-1,1-dicarboxamide] | 0.01 to 0.1 | > 0.3 | > 0.3
8 | Cc1cc2c(Oc3ccc(NC(=O)C4(C(=O)Nc5ccc(F)cc5)CC4)cc3)ccnc2cc1-c1cn[nH]c1 [Compound 106, 1-N′-(4-Fluorophenyl)-1-N-[4-[6-methyl-7-(1H-pyrazol-4-yl)quinolin-4-yl]oxyphenyl]cyclopropane-1,1-dicarboxamide] | 0.01 to 0.1 | 0.01 to 0.1 | ≤ 0.01
9 | O=C(Nc1ccc(F)cc1)C1(C(=O)Nc2ccc(Oc3ccnc4cc(-c5cnc6[nH]ccc6c5)ccc34)cc2)CC1 [Compound 44, 1-N′-(4-Fluorophenyl)-1-N-[4-[7-(1H-pyrrolo[2,3-b]pyridin-5-yl)quinolin-4-yl]oxyphenyl]cyclopropane-1,1-dicarboxamide] | 0.1 to 0.3 |  | 

Continued, values first:

Row | IC50 [1] [µM] | IC50 [2] [µM] | IC50 [3] [µM] | SMILES
10 | 0.1 to 0.3 |  |  | O=C(Nc1ccc(F)cc1)C1(C(=O)Nc2ccc(Oc3ccnc4cc(-c5ccnc(C(F)(F)F)c5)ccc34)cc2)CC1 [Compound 36, 1-N′-(4-Fluorophenyl)-1-N-[4-[7-[2-(trifluoromethyl)pyridin-4-yl]quinolin-4-yl]oxyphenyl]cyclopropane-1,1-dicarboxamide]
11 | 0.01 to 0.1 | 0.1 to 0.3 | 0.01 to 0.1 | Cc1ccc(-c2ccc3c(Oc4ccc(NC(=O)C5(C(=O)Nc6ccc(F)cc6)CC5)cc4)ccnc3c2)cn1 [Compound 37, 1-N′-(4-Fluorophenyl)-1-N-[4-[7-(6-methylpyridin-3-yl)quinolin-4-yl]oxyphenyl]cyclopropane-1,1-dicarboxamide]
12 | 0.1 to 0.3 |  |  | O=C(Nc1ccc(F)cc1)C1(C(=O)Nc2ccc(Oc3ccnc4cc(-c5cncc(C(F)(F)F)c5)ccc34)cc2)CC1 [Compound 48, 1-N′-(4-Fluorophenyl)-1-N-[4-[7-[5-(trifluoromethyl)pyridin-3-yl]quinolin-4-yl]oxyphenyl]cyclopropane-1,1-dicarboxamide]
13 | 0.1 to 0.3 |  |  | O=C(Nc1ccc(F)cc1)C1(C(=O)Nc2ccc(Oc3ccnc4cc(-c5ccc(C(F)(F)F)nc5)ccc34)cc2)CC1 [Compound 35, 1-N′-(4-Fluorophenyl)-1-N-[4-[7-[6-(trifluoromethyl)pyridin-3-yl]quinolin-4-yl]oxyphenyl]cyclopropane-1,1-dicarboxamide]
